Assay results published in patent publication US6673791B2, “Non-nucleoside reverse transcriptase inhibitors” (Boehringer Ingelheim (Canada) Ltd., priority 2001, dated 2004).

Target: T1, K103N/Y181C double mutant RT (HIV-1 RT) (Human immunodeficiency virus type 1 group M subtype B, UniProt P03366, K702N/Y780C)
T1 construct: mutations that occur in the reverse transcriptase segment of the pol gene
Assay: biochemical
Details: not given
From the text: (§1) Based upon testing of these compounds, as described below, it is known that they inhibit the RNA-dependent DNA polymerase activity of HIV-1 RT. […] Utilising the Reverse Transcriptase (RT) Assay described below, compounds can be tested for their ability to inhibit the RNA-dependent DNA polymerase activity of HIV-1 RT. Certain specific compounds described in the Examples which appear below, were so tested. The results of this testing appear in Table 4 as IC50 (nM) and Table 5 as EC50 (nM).
(§2) Reverse TranscriptASE (RT) Assays
(§3) The assays are as described in WO 01/96338A1, the contents of which are hereby incorporated herein. The results are listed in Tables 8 as IC50(nM) and EC50(nM).

Row | SMILES | IC50 [nM]
1 | CCN1c2ncc(CCOc3ccc(CC(=O)O)c4ccccc34)cc2C(=O)Nc2c(C)cc(F)nc21 [Entry 1014] | 100 to 1000
2 | CCN1c2ncc(CCOc3cccc4c(S(N)(=O)=O)cccc34)cc2C(=O)N(C)c2cccnc21 [Entry 2004] | < 100
3 | CCN1c2ncc(CCOc3ccc(/C=C(\C)C(=O)O)c4ccccc34)cc2C(=O)Nc2c(C)ccnc21 [Entry 1039] | 100 to 1000
4 | CCN1c2ncc(CCOc3ccc4cc(CC(=O)O)ccc4c3)cc2C(=O)N(C)c2cccnc21 [Entry 3004] | > 1000
5 | CCN1c2ncc(CCOc3ccc(CC(C)C(=O)O)c4ccccc34)cc2C(=O)N(C)c2ccc(F)nc21 (stereo not drawn) [Entry 1043] | 100 to 1000
6 | CCN1c2ncc(CCOc3ccc(CC(N)=O)c4ccccc34)cc2C(=O)N(C)c2cccnc21 [Entry 1018] | < 100
7 | CCN1c2ncc(CCOc3ccc(CC(C)C(=O)O)c4ccccc34)cc2C(=O)Nc2c(C)ccnc21 (stereo not drawn) [Entry 1046] | > 1000
8 | CCN1c2ncc(CCOc3ccc(CCC(=O)O)c4ccccc34)cc2C(=O)N(C)c2ccc(C)nc21 [Entry 1026] | 100 to 1000

Same assay, conditions: K103N/Y181C double mutant RT; read-out: IC50 K103N/Y181C

Row | SMILES | IC50 [nM]
9 | CCN1c2ncc(CCOc3ccc(S(=O)(=O)NC(C)=O)c4ccccc34)cc2C(=O)N(C)c2cccnc21 [Entry 2005] | 100 to 1000
10 | CCN1c2ncc(CCOc3ccc(CC(=O)NS(C)(=O)=O)c4ccccc34)cc2C(=O)N(C)c2cccnc21 [Entry 2012] | > 1000
11 | CCN1c2ncc(CCOc3ccc(NC(=O)CC(C)(C)C(=O)O)c4ccccc34)cc2C(=O)N(C)c2cccnc21 [Entry 2007] | 100 to 1000

Same assay, conditions: read-out: IC50 K103N/Y181C; K103N/Y181C double mutant RT

Row | SMILES | IC50 [nM]
12 | CCN1c2ncc(CCOc3ccc(/C=C/C(=O)O)c4ccccc34)cc2C(=O)N(C)c2ccc(C)nc21 [Entry 2017] | 100 to 1000
13 | CCN1c2ncc(CCOc3ccc(/C=C/C(=O)O)c4ccccc34)cc2C(=O)Nc2c(C)cc(F)nc21 [Entry 2015] | 100 to 1000
14 | CCN1c2ncc(CCOc3ccc(/C=C/C(=O)O)c4ccccc34)cc2C(=O)N(C)c2cccnc21 [Entry 2013] | 100 to 1000

Target: T2, V106A mutant RT (HIV-1 RT) (Human immunodeficiency virus type 1 group M subtype B, UniProt P03366, V705A)
T2 construct: mutations that occur in the reverse transcriptase segment of the pol gene
Assay: biochemical
Details: IC50 V106A (nM)
From the text: as §1, §2, §3

Row | SMILES | IC50 [nM]
15 | CCN1c2ncc(CCOc3ccc(/C=C/C(=O)O)c4ccccc34)cc2C(=O)N(C)c2ccc(C)nc21 [Entry 2017] | > 1000
16 | CCN1c2ncc(CCOc3ccc(/C=C/C(=O)O)c4ccccc34)cc2C(=O)Nc2c(C)cc(F)nc21 [Entry 2015] | 100 to 1000
17 | CCN1c2ncc(CCOc3ccc(CC(=O)O)c4ccccc34)cc2C(=O)Nc2c(C)cc(F)nc21 [Entry 1014] | 100 to 1000
18 | CCN1c2ncc(CCOc3cccc4c(S(N)(=O)=O)cccc34)cc2C(=O)N(C)c2cccnc21 [Entry 2004] | 100 to 1000
19 | CCN1c2ncc(CCOc3ccc(/C=C(\C)C(=O)O)c4ccccc34)cc2C(=O)Nc2c(C)ccnc21 [Entry 1039] | 100 to 1000
20 | CCN1c2ncc(CCOc3ccc4cc(CC(=O)O)ccc4c3)cc2C(=O)N(C)c2cccnc21 [Entry 3004] | 100 to 1000
21 | CCN1c2ncc(CCOc3ccc(CC(C)C(=O)O)c4ccccc34)cc2C(=O)N(C)c2ccc(F)nc21 (stereo not drawn) [Entry 1043] | > 1000
22 | CCN1c2ncc(CCOc3ccc(CC(N)=O)c4ccccc34)cc2C(=O)N(C)c2cccnc21 [Entry 1018] | 100 to 1000
23 | CCN1c2ncc(CCOc3ccc(CC(C)C(=O)O)c4ccccc34)cc2C(=O)Nc2c(C)ccnc21 (stereo not drawn) [Entry 1046] | > 1000
24 | CCN1c2ncc(CCOc3ccc(CCC(=O)O)c4ccccc34)cc2C(=O)N(C)c2ccc(C)nc21 [Entry 1026] | > 1000

Same assay, conditions: read-out: IC50 V106A

Row | SMILES | IC50 [nM]
25 | CCN1c2ncc(CCOc3ccc(S(=O)(=O)NC(C)=O)c4ccccc34)cc2C(=O)N(C)c2cccnc21 [Entry 2005] | > 1000
26 | CCN1c2ncc(CCOc3ccc(CC(=O)NS(C)(=O)=O)c4ccccc34)cc2C(=O)N(C)c2cccnc21 [Entry 2012] | > 1000
27 | CCN1c2ncc(CCOc3ccc(/C=C/C(=O)O)c4ccccc34)cc2C(=O)N(C)c2cccnc21 [Entry 2013] | > 1000
28 | CCN1c2ncc(CCOc3ccc(NC(=O)CC(C)(C)C(=O)O)c4ccccc34)cc2C(=O)N(C)c2cccnc21 [Entry 2007] | > 1000

Target: T3, WT RT (HIV-1 RT) (Human immunodeficiency virus type 1 group M subtype B, UniProt P03366)
T3 construct: mutations that occur in the reverse transcriptase segment of the pol gene
Assay: biochemical
Details: not given
From the text: as §1, §2, §3

Row | SMILES | IC50 [nM]
29 | CCN1c2ncc(CCOc3cccc4c3CCCN4C(=O)CC(=O)O)cc2C(=O)N(C)c2cccnc21 [Entry 6002] | < 100
30 | CCN1c2ncc(CCOc3ccc(CC(=O)NN)c4ccccc34)cc2C(=O)N(C)c2ccc(NN)nc21 [Entry 1017] | < 100
31 | CCN1c2ncc(CCOc3ccc(CC(=O)O)c4ccccc34)cc2C(=O)Nc2c(C)cc(F)nc21 [Entry 1014] | < 100
32 | CCN1c2ncc(CCOc3cccc4c(S(N)(=O)=O)cccc34)cc2C(=O)N(C)c2cccnc21 [Entry 2004] | < 100
33 | CCN1c2ncc(CCOc3ccc(/C=C(\C)C(=O)O)c4ccccc34)cc2C(=O)Nc2c(C)ccnc21 [Entry 1039] | < 100
34 | CCN1c2ncc(CCOc3ccc4cc(CC(=O)O)ccc4c3)cc2C(=O)N(C)c2cccnc21 [Entry 3004] | < 100
35 | CCN1c2ncc(CCOc3ccc(CC(C)C(=O)O)c4ccccc34)cc2C(=O)N(C)c2ccc(F)nc21 (stereo not drawn) [Entry 1043] | < 100
36 | CCN1c2ncc(CCOc3ccc(CC(N)=O)c4ccccc34)cc2C(=O)N(C)c2cccnc21 [Entry 1018] | < 100
37 | CCN1c2ncc(CCOc3ccc(CC(C)C(=O)O)c4ccccc34)cc2C(=O)Nc2c(C)ccnc21 (stereo not drawn) [Entry 1046] | < 100
38 | CCN1c2ncc(CCOc3ccc(CCC(=O)O)c4ccccc34)cc2C(=O)N(C)c2ccc(C)nc21 [Entry 1026] | < 100

Same assay, conditions: read-out: IC50 WT RT; wild type RT

Row | SMILES | IC50 [nM]
39 | CCN1c2ncc(CCOc3ccc(/C=C/C(=O)O)c4ccccc34)cc2C(=O)N(C)c2ccc(C)nc21 [Entry 2017] | < 100
40 | CCN1c2ncc(CCOc3ccc(/C=C/C(=O)O)c4ccccc34)cc2C(=O)Nc2c(C)cc(F)nc21 [Entry 2015] | < 100

Same assay, conditions: wild type RT; read-out: IC50 WT RT

Row | SMILES | IC50 [nM]
41 | CCN1c2ncc(CCOc3ccc(S(=O)(=O)NC(C)=O)c4ccccc34)cc2C(=O)N(C)c2cccnc21 [Entry 2005] | < 100
42 | CCN1c2ncc(CCOc3ccc(CC(=O)NS(C)(=O)=O)c4ccccc34)cc2C(=O)N(C)c2cccnc21 [Entry 2012] | < 100
43 | CCN1c2ncc(CCOc3ccc(CC(C)C(=O)O)c4ccccc34)cc2C(=O)N(C)c2cccnc21 (stereo not drawn) [Entry 2021] | 100 to 1000
44 | CCN1c2ncc(CCOc3ccc(NC(=O)CC(C)(C)C(=O)O)c4ccccc34)cc2C(=O)N(C)c2cccnc21 [Entry 2007] | < 100

Target: T4, Y188L mutant RT (HIV-1 RT) (Human immunodeficiency virus type 1 group M subtype B, UniProt P03366, Y787L)
T4 construct: mutations that occur in the reverse transcriptase segment of the pol gene
Assay: biochemical
Details: IC50 Y188L (nM)
From the text: as §1, §2, §3

Row | SMILES | IC50 [nM]
45 | CCN1c2ncc(CCOc3ccc(/C=C/C(=O)O)c4ccccc34)cc2C(=O)N(C)c2ccc(C)nc21 [Entry 2017] | > 1000
46 | CCN1c2ncc(CCOc3ccc(/C=C/C(=O)O)c4ccccc34)cc2C(=O)N(C)c2cccnc21 [Entry 2013] | > 1000
47 | CCN1c2ncc(CCOc3ccc(CC(=O)O)c4ccccc34)cc2C(=O)Nc2c(C)cc(F)nc21 [Entry 1014] | > 1000
48 | CCN1c2ncc(CCOc3cccc4c(S(N)(=O)=O)cccc34)cc2C(=O)N(C)c2cccnc21 [Entry 2004] | 100 to 1000
49 | CCN1c2ncc(CCOc3ccc(/C=C(\C)C(=O)O)c4ccccc34)cc2C(=O)Nc2c(C)ccnc21 [Entry 1039] | > 1000
50 | CCN1c2ncc(CCOc3ccc4cc(CC(=O)O)ccc4c3)cc2C(=O)N(C)c2cccnc21 [Entry 3004] | > 1000
51 | CCN1c2ncc(CCOc3ccc(CC(C)C(=O)O)c4ccccc34)cc2C(=O)N(C)c2ccc(F)nc21 (stereo not drawn) [Entry 1043] | > 1000
52 | CCN1c2ncc(CCOc3ccc(CC(N)=O)c4ccccc34)cc2C(=O)N(C)c2cccnc21 [Entry 1018] | > 1000
53 | CCN1c2ncc(CCOc3ccc(CC(C)C(=O)O)c4ccccc34)cc2C(=O)Nc2c(C)ccnc21 (stereo not drawn) [Entry 1046] | > 1000
54 | CCN1c2ncc(CCOc3ccc(CCC(=O)O)c4ccccc34)cc2C(=O)N(C)c2ccc(C)nc21 [Entry 1026] | > 1000

Same assay, conditions: read-out: IC50 Y188L

Row | SMILES | IC50 [nM]
55 | CCN1c2ncc(CCOc3ccc(S(=O)(=O)NC(C)=O)c4ccccc34)cc2C(=O)N(C)c2cccnc21 [Entry 2005] | > 1000
56 | CCN1c2ncc(CCOc3ccc(/C=C/C(=O)O)c4ccccc34)cc2C(=O)Nc2c(C)cc(F)nc21 [Entry 2015] | > 1000
57 | CCN1c2ncc(CCOc3ccc(CC(=O)NS(C)(=O)=O)c4ccccc34)cc2C(=O)N(C)c2cccnc21 [Entry 2012] | > 1000
58 | CCN1c2ncc(CCOc3ccc(NC(=O)CC(C)(C)C(=O)O)c4ccccc34)cc2C(=O)N(C)c2cccnc21 [Entry 2007] | > 1000

System: WT RT (HIV-1 wild type strain)
Assay: EC50 assay, WT RT strain
Format: cell-based
Details: Human immunodeficiency virus 1, read-out: EC50 WT RT (nM)
From the text: as §2, §3

Row | SMILES | EC50 [nM]
59 | CCN1c2ncc(CCOc3ccc(C(=O)O)c4ccccc34)cc2C(=O)N(C)c2cccnc21 [Entry 1001] | < 100

System: K103N/Y181C (HIV-1 double mutant strain)
Assay: EC50 assay, K103N/Y181C strain
Format: cell-based
Details: Human immunodeficiency virus 1, read-out: EC50 K103N/Y181C (nM), K103N/Y181C double mutant
From the text: as §2, §3

Row | SMILES | EC50 [nM]
60 | CCN1c2ncc(CCOc3ccc(C(=O)O)c4ccccc34)cc2C(=O)N(C)c2cccnc21 [Entry 1001] | < 100
